“And” between values parts separate entries of the source, which are not always exact repeats. Identical values can stand only once.
Tested on: Arabidopsis wild-type (WT) seedlings
Experiment: Stomatal development bioassay, seedlings in liquid culture
Type: in vivo
Settings: for effect on stomatal development (in words): WT seedlings; for Number of stomata per 1 mm2 of cotyledon abaxial epidermis: single seedlings n=8 (Fig. 2c); for reduction of total number of stomata and meristemoids / decrease of the number of stomata from mock / increase of the number of meristemoids from mock: WT (Fig. 1e); for meristemoid density, mean / stomata density, mean / total (stomata+meristemoid) density, mean: mean of n=8 (Fig. 1e)
Description: Arabidopsis accession Columbia (Col-0) was used as wild-type. […] Their genotype and transcript reduction were confirmed. The presence of transgenes/mutant alleles were confirmed by genotyping. For liquid culture with Stomidazolone (AYSJ929, compound 3), the analogs (AYSJ1059 (compound 5) and AYSJ1061 (compound 6)), degraded compound lzx103 (compound 4), and SIM3* (compound 7), all compounds were dissolved in dimethyl sulfoxide (DMSO, Molecular biology grade, Fujifilm Wako, Japan 046-21981), Col-0 seeds were sown in 96-well plates (TL5003; True Line) containing 95 μL of 1/2 MS media containing 0.5% sucrose with rotary shaking at 140 rpm under continuous light at 22 °C. Five μL of compounds were dissolved in DMSO at 10 mM and diluted with liquid 1/2 MS media to 1 mM and added on 1-day-old seedlings (final concentration, 50 μM). Seedlings were incubated for 8 days, and at day 9 seedling abaxial cotyledons were observed through confocal microscopy. For liquid culture of scrm-D_S343 and scrm-D_S423, 1/2 MS liquid media without sucrose was used. For the solid culture, 0, 20, 50 or 100 μM Stomidazolone were solidified with low-melting agarose (5805S, PrimeGelTM Agarose LMT 1-20 K, TAKARA Bio). Briefly, 1/2 MS salt, 0.5% sucrose, and 0.8% low melting agarose were mixed in water and autoclaved. After cooling the medium at around 30 °C, Stomidazolone (500x, dissolved in DMSO) was added and poured into 90 mm petri dishes (Asnol Petri Dish JP φ90 x 15 mm, 3-1491-01, AS ONE). Col-0 seeds were sown on Stomidazolone-containing 1/2 MS agarose media and grown under continuous light for 9 days.
For confocal microscopy, cell peripheries of seedlings were visualized with propidium iodide (Sigma, P4170). Images were acquired using LSM800 or LSM700 (Zeiss) using a 20x lens. The GFP, YFP reporter and PI signals were detected with excitation at 488 nm and an emission filter of 410 to 546 nm, at 488 nm and an emission filter of 410 to 546 nm, and with excitation at 561 nm and 582–617 nm emission range, respectively. Raw data were collected with 1024 × 1024 pixel images. For qualitative image presentation, Adobe Photoshop CC was used to trim and uniformly adjust the contrast/brightness.
For quantitative analysis of the abaxial leaf epidermis, confocal images were taken on the days after germination as indicated in the Figure legends. Preparation of images was done as described previously[32],[70]. For counting epidermal cell types, stomatal density, stomatal precursor cells (meristemoids), total stomata-lineage cells (stomata and meristemoids) were calculated by counting cell types in an area of 0.4 mm^2 (0.63 mm × 0.63 mm) and plotted as per mm^2. A series of Z-stack confocal images was obtained to obtain images covering the epidermis and capturing GFP/YFP signal from the reporter lines. The area and the number of epidermal cells were quantified by using FIJI-ImageJ. Statistical analyses were performed using R ver. 4.0.2. Sample sizes (n) are indicated and defined in each legend. For the multiple sample comparison, 1-way ANOVA was performed followed by a post hoc Tukey HSD test. For the two-sample comparison, Student’s T-test was performed. Graphs were generated using R ggplot2 package. For all boxplots, each box represents IQR (interquartile range), in which top, middle line, and bottom indicating 75, 50, and 25 percentiles, respectively, and the bar representing maximum to minimal values. Each magenta dot represents jittered individual data point. The datapoints that go beyond the bar are outliers, which are indicated as black dots. If the data point is greater than Q3 + 1.5*IQR (above the third quartile is greater than 1.5 times of the interquartile range) or less than Q1 − 1.5*IQR, that data point is classified as outlier. The color of Boxplot graph was based on ColorBrewer.org. The value of n, the number of each experiment or samples, the means of error bars, and how statistical significance was defined are indicated in a relevant figure legend. […]

[1] = 50 μM, WT, single seedlings n=8 (Fig. 4b)
[2] = 50 μM, cotyledon abaxial epidermis, individual seedlings

Cc1ccc(C2(NS(=O)(=O)c3ccccc3)N=C(c3ccccc3)C(=O)N2S(=O)(=O)c2ccccc2)cc1 (stereo not shown) [AYSJ1059]
effect on stomatal development (in words) (50 μM, liquid culture): did not affect the number of stomata
Number of stomata per 1 mm2 of cotyledon abaxial epidermis (50 μM, WT, 9 dag): 202 per 1 mm2 and 209 per 1 mm2 and 187 per 1 mm2 and 245 per 1 mm2 and 192 per 1 mm2 and 182 per 1 mm2 and 199 per 1 mm2 and 175 per 1 mm2

O=C1C(c2ccccc2)=NC(NS(=O)(=O)c2ccccc2)(c2ccc(Br)cc2)N1S(=O)(=O)c1ccccc1 (stereo not shown) [AYSJ1061]
effect on stomatal development (in words) (50 μM, liquid culture): did not affect the number of stomata
Number of stomata per 1 mm2 of cotyledon abaxial epidermis (50 μM, WT, 9 dag): 160 per 1 mm2 and 190 per 1 mm2 and 148 per 1 mm2 and 192 per 1 mm2 and 173 per 1 mm2 and 255 per 1 mm2 and 236 per 1 mm2

O=C1C(c2ccccc2)=NC(NS(=O)(=O)c2ccccc2)(c2ccccc2)N1S(=O)(=O)c1ccccc1 (stereo not shown) [Stomidazolone]
reduction of total number of stomata and meristemoids (20 μM): 14.46%
Total (stomata+meristemoid) density (20 uM, WT cotyledon abaxial epidermis, 9 dag, single seedlings n=8 (Fig. 1e)): 156 per mm^2 and 173 per mm^2 and 163 per mm^2 and 168 per mm^2 and 107 per mm^2 and 154 per mm^2 and 144 per mm^2 and 124 per mm^2
Stomata density (20 uM, WT, 9 dag, single seedlings n=8 (Fig. 1e)): 115 per mm^2 and 141 per mm^2 and 144 per mm^2 and 132 per mm^2 and 88 per mm^2 and 127 per mm^2
meristemoid density, mean (20 uM, WT, mock mean 7.875): 24.875 per mm^2
stomata density, mean (20 uM, WT, mock mean 165.75): 124.25 per mm^2
total (stomata+meristemoid) density, mean (20 uM, WT, mock mean 173.75): 148.625 per mm^2
decrease of the number of stomata from mock (50 μM): 59.50%
increase of the number of meristemoids from mock (50 μM): 801.5%
reduction of total number of stomata and meristemoids (50 μM): 25.03%
Total (stomata+meristemoid) density (50 uM, WT, 9 dag, single seedlings n=8 (Fig. 1e)): 166 per mm^2 and 149 per mm^2 and 124 per mm^2 and 132 per mm^2 and 146 per mm^2 and 100 per mm^2 and 115 per mm^2 and 110 per mm^2
Number of stomata per 1 mm2 of cotyledon abaxial epidermis (50 μM, WT, 9 dag): 70 per 1 mm2 and 109 per 1 mm2 and 90 per 1 mm2 and 124 per 1 mm2 and 129 per 1 mm2 and 112 per 1 mm2 and 117 per 1 mm2
meristemoid density, mean (50 uM, WT): 63.125 per mm^2
stomata density, mean (50 uM, WT): 67.125 per mm^2
total (stomata+meristemoid) density, mean (50 uM, WT): 130.25 per mm^2
Stomata density [1]: 90 per mm2 and 117 per mm2 and 102 per mm2 and 75 per mm2 and 107 per mm2 and 148 per mm2
Total (stomata+meristemoid) density [1]: 104 per mm2 and 136 per mm2 and 119 per mm2 and 102 per mm2 and 87 per mm2 and 124 per mm2 and 168 per mm2 and 158 per mm2
Meristemoid density (50 μM, WT, single seedlings n=8 (Fig. 4b, replotted 4k)): 15 per mm2 and 19 per mm2 and 17 per mm2 and 12 per mm2 and 10 per mm2
Meristemoid density [2]: 0 per mm2 and 2 per mm2 and 10 per mm2 and 5 per mm2 and 7 per mm2
Stomata density [2]: 214 per mm2 and 241 per mm2 and 216 per mm2 and 228 per mm2 and 194 per mm2 and 250 per mm2 and 182 per mm2 and 207 per mm2
Total cell density [2]: 214 per mm2 and 243 per mm2 and 226 per mm2 and 233 per mm2 and 199 per mm2 and 253 per mm2 and 190 per mm2 and 209 per mm2
decrease of the number of stomata from mock (100 μM): 69.53%
increase of the number of meristemoids from mock (100 μM): 647.6%
Total (stomata+meristemoid) density (100 uM, WT, 9 dag, single seedlings n=8 (Fig. 1e)): 120 per mm^2 and 85 per mm^2 and 71 per mm^2 and 112 per mm^2 and 95 per mm^2 and 122 per mm^2
meristemoid density, mean (100 uM, WT): 51 per mm^2
stomata density, mean (100 uM, WT): 50.5 per mm^2
total (stomata+meristemoid) density, mean (100 uM, WT): 101.25 per mm^2
effect on overall seedling growth (liquid culture, even at 100 μM (Fig. 1f)): does not affect

From publication PMC11500415, “Chemical inhibition of stomatal differentiation by perturbation of the master-regulatory bHLH heterodimer via an ACT-Like domain” (Nature Communications, 2024)
